Earlier results, collected in US7572882B2 (priority 2000, dated 2009).

How the values were obtained:
[1] = tested on: HLA-DR alleles
[2] = tested on: T helper lymphocytes; settings: regardless of HLA type

Substance: aKXVAAWTLKAAa
- binding to HLA-DR alleles [1]: bind to most HLA-DR alleles
- stimulation of the response of T helper lymphocytes [2]: stimulate the response of T helper lymphocytes from most individuals
